# *1 amine or outer side, *2 acyl side, *3 side chain or, on linkers, in order; H or OH if unused. Where a SMILES comes first, the peptide text is derived from it. Bridges are numbered along the chain shown (N, C = ends). [ ]: non-standard residue; d: D form. The star is where a group is joined. hPhe(3-Cl-4-CF3) = N[C@@H](CCc1ccc(C(F)(F)F)c(Cl)c1)C(=O)O; NPrPhe(4-CF3) = CCCN[C@@H](Cc1ccc(C(F)(F)F)cc1)C(=O)O; NEtPhe(4-CF3) = CCN[C@@H](Cc1ccc(C(F)(F)F)cc1)C(=O)O; hPhe(3,4-Cl2) = N[C@@H](CCc1ccc(Cl)c(Cl)c1)C(=O)O; X9 = CCCN([C@@H](Cc1ccc(F)cc1)C(=O)[*:2])[*:1]; X43 = CCCN([C@@H](Cc1ccccc1)C(=O)[*:2])[*:1]; NEtPhe(4-F) = CCN[C@@H](Cc1ccc(F)cc1)C(=O)O; NMePhe(4-F) = CN[C@@H](Cc1ccc(F)cc1)C(=O)O; NMeGly(cPent) = CN[C@H](C(=O)O)C1CCCC1; NEtPhe = CCN[C@@H](Cc1ccccc1)C(=O)O; NMeD = CN[C@@H](CC(=O)O)C(=O)O; NMeL = CN[C@@H](CC(C)C)C(=O)O; Ac6c = NC1(C(=O)O)CCCCC1; Morpholide = C1CN(*)CCO1; NMeA = CN[C@@H](C)C(=O)O; Ac5c = NC1(C(=O)O)CCCC1; Aze = O=C(O)[C@@H]1CCN1; Ac3c = NC1(C(=O)O)CC1; Aib = CC(C)(N)C(=O)O; Sar = CNCC(=O)O
# Tests used:
# [1] = biological target: GDP-bound HRAS wild-type protein (Homo sapiens, UniProt P01112); test: Binding to HRAS by surface plasmon resonance (SPR), Single Cycle Kinetics; details: SPR, GDP-bound HRAS wild-type protein vs GDP-bound KRAS wild-type protein
# Chain of GDP-bound HRAS wild-type protein (P01112 whole entry): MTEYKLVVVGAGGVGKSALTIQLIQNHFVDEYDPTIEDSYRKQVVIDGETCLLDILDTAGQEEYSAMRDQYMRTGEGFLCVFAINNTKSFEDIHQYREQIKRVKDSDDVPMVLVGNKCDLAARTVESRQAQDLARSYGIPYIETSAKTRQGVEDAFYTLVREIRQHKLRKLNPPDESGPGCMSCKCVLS
# [2] = biological target: GDP-bound NRAS wild-type protein (Homo sapiens, UniProt P01111); test: Binding to NRAS by surface plasmon resonance (SPR), Single Cycle Kinetics; details: SPR, GDP-bound NRAS wild-type protein vs GDP-bound KRAS wild-type protein
# Chain of GDP-bound NRAS wild-type protein (P01111 whole entry): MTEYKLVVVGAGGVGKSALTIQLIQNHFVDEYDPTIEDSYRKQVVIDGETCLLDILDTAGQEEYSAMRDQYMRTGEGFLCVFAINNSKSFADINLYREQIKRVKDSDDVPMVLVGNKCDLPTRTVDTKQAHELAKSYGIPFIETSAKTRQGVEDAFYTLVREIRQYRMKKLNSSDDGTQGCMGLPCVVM
# [3] = biological target: GDP-bound KRAS wild-type protein (Homo sapiens, UniProt P01116); test: Binding to KRAS by surface plasmon resonance (SPR), Single Cycle Kinetics; details: SPR Single Cycle Kinetics, GDP-bound KRAS wild-type protein, 1:1 binding model; read-out: KRAS KD
# Chain of GDP-bound KRAS wild-type protein (P01116 whole entry): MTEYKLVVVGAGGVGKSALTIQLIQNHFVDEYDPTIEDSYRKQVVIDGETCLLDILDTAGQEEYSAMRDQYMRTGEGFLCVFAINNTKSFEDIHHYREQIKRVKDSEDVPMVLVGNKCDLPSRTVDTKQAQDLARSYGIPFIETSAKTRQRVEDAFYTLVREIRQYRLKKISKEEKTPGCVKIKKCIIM
Structure (SMILES),Kd [3],HRAS/KRAS (ratio of KD value for HRAS to KD value for KRAS) [1],NRAS/KRAS (ratio of KD value for NRAS to KD value for KRAS) [2]
CC[C@H](C)[C@@H]1NC(=O)[C@H](CC(C)C)N(C)C(=O)C[C@@H](C(=O)N2CCOCC2)N(C)C(=O)[C@H](C2CCCC2)N(C)C(=O)C2(CCCC2)NC(=O)[C@@H]2CCCN2C(=O)[C@H](CCc2ccc(C(F)(F)F)c(Cl)c2)NC(=O)CN(C)C(=O)[C@H](Cc2ccccc2)N(CC)C(=O)[C@@H]2CCN2C(=O)[C@H](C)N(C)C1=O [PP0215] ([NMeL]I[NMeA][Aze][NEtPhe][Sar][hPhe(3-Cl-4-CF3)]P[Ac5c][NMeGly(cPent)][NMeD]-Morpholide; lactam N-11),0.41 nM,C (A compound having a KD ratio of 0.1 or more and less than 3 is denoted as C),C (A compound having a KD ratio of 0.1 or more and less than 3 is denoted as C)
CCCN1C(=O)[C@@H]2CCN2C(=O)[C@H](C)N(C)C(=O)[C@H]([C@@H](C)CC)NC(=O)[C@H](CC(C)C)N(C)C(=O)C[C@@H](C(=O)N2CCOCC2)N(C)C(=O)[C@H](C2CCCC2)N(C)C(=O)C2(CCCC2)NC(=O)[C@@H]2CCCN2C(=O)[C@H](CCc2ccc(C(F)(F)F)c(Cl)c2)NC(=O)CN(C)C(=O)[C@@H]1Cc1ccccc1 [PP0216] ([NMeL]I[NMeA][Aze][X43][Sar][hPhe(3-Cl-4-CF3)]P[Ac5c][NMeGly(cPent)][NMeD]-Morpholide; lactam N-11),0.28 nM,B (a compound having 3 or more and less than 10 is denoted as B),C (A compound having a KD ratio of 0.1 or more and less than 3 is denoted as C)
CC[C@H](C)[C@@H]1NC(=O)[C@H](CC(C)C)N(C)C(=O)C[C@@H](C(=O)N2CCOCC2)N(C)C(=O)[C@H](C2CCCC2)N(C)C(=O)C2(CCCC2)NC(=O)[C@@H]2CCCN2C(=O)[C@H](CCc2ccc(C(F)(F)F)c(Cl)c2)NC(=O)CN(C)C(=O)[C@H](Cc2ccc(F)cc2)N(CC)C(=O)[C@@H]2CCN2C(=O)[C@H](C)N(C)C1=O [PP0218] ([NMeL]I[NMeA][Aze][NEtPhe(4-F)][Sar][hPhe(3-Cl-4-CF3)]P[Ac5c][NMeGly(cPent)][NMeD]-Morpholide; lactam N-11),0.2 nM,C (A compound having a KD ratio of 0.1 or more and less than 3 is denoted as C),C (A compound having a KD ratio of 0.1 or more and less than 3 is denoted as C)
CC[C@H](C)[C@@H]1NC(=O)[C@H](CC(C)C)N(C)C(=O)C[C@@H](C(=O)N2CCOCC2)N(C)C(=O)[C@H](C2CCCC2)N(C)C(=O)C2(CC2)NC(=O)[C@@H]2CCCN2C(=O)[C@H](CCc2ccc(C(F)(F)F)c(Cl)c2)NC(=O)CN(C)C(=O)[C@H](Cc2ccc(C(F)(F)F)cc2)N(CC)C(=O)[C@@H]2CCN2C(=O)[C@H](C)N(C)C1=O [PP0220] ([NMeL]I[NMeA][Aze][NEtPhe(4-CF3)][Sar][hPhe(3-Cl-4-CF3)]P[Ac3c][NMeGly(cPent)][NMeD]-Morpholide; lactam N-11),0.35 nM,C (A compound having a KD ratio of 0.1 or more and less than 3 is denoted as C),C (A compound having a KD ratio of 0.1 or more and less than 3 is denoted as C)
CC[C@H](C)[C@@H]1NC(=O)[C@H](CC(C)C)N(C)C(=O)C[C@@H](C(=O)N2CCOCC2)N(C)C(=O)[C@H](C2CCCC2)N(C)C(=O)C(C)(C)NC(=O)[C@@H]2CCCN2C(=O)[C@H](CCc2ccc(C(F)(F)F)c(Cl)c2)NC(=O)CN(C)C(=O)[C@H](Cc2ccc(C(F)(F)F)cc2)N(CC)C(=O)[C@@H]2CCN2C(=O)[C@H](C)N(C)C1=O [PP0221] ([NMeL]I[NMeA][Aze][NEtPhe(4-CF3)][Sar][hPhe(3-Cl-4-CF3)]P[Aib][NMeGly(cPent)][NMeD]-Morpholide; lactam N-11),0.19 nM,C (A compound having a KD ratio of 0.1 or more and less than 3 is denoted as C),C (A compound having a KD ratio of 0.1 or more and less than 3 is denoted as C)
"CC[C@H](C)[C@@H]1NC(=O)[C@H](CC(C)C)N(C)C(=O)C[C@@H](C(=O)N2CCOCC2)N(C)C(=O)[C@H](C2CCCC2)N(C)C(=O)C2(CCCC2)NC(=O)[C@@H]2CCCN2C(=O)[C@H](CCc2ccc(Cl)c(Cl)c2)NC(=O)CN(C)C(=O)[C@H](Cc2ccc(C(F)(F)F)cc2)N(CC)C(=O)[C@@H]2CCN2C(=O)[C@H](C)N(C)C1=O [PP0223] ([NMeL]I[NMeA][Aze][NEtPhe(4-CF3)][Sar][hPhe(3,4-Cl2)]P[Ac5c][NMeGly(cPent)][NMeD]-Morpholide; lactam N-11)",0.4 nM,C (A compound having a KD ratio of 0.1 or more and less than 3 is denoted as C),C (A compound having a KD ratio of 0.1 or more and less than 3 is denoted as C)

# Further lines, with some results ahead:
Kd [3],Structure (SMILES),HRAS/KRAS (ratio of KD value for HRAS to KD value for KRAS) [1],NRAS/KRAS (ratio of KD value for NRAS to KD value for KRAS) [2]
0.13 nM,CCCN1C(=O)CN(C)C(=O)CN(C)C(=O)[C@H]([C@@H](C)CC)NC(=O)[C@H](CC(C)C)N(C)C(=O)C[C@@H](C(=O)N2CCOCC2)N(C)C(=O)[C@H](C2CCCC2)N(C)C(=O)C2(CCCC2)NC(=O)[C@@H]2CCCN2C(=O)[C@H](CCc2ccc(C(F)(F)F)c(Cl)c2)NC(=O)CN(C)C(=O)[C@@H]1Cc1ccc(F)cc1 [PP0214] ([NMeL]I[Sar][Sar][X9][Sar][hPhe(3-Cl-4-CF3)]P[Ac5c][NMeGly(cPent)][NMeD]-Morpholide; lactam N-11),C (A compound having a KD ratio of 0.1 or more and less than 3 is denoted as C),B (a compound having 3 or more and less than 10 is denoted as B)
0.18 nM,CC[C@H](C)[C@@H]1NC(=O)[C@H](CC(C)C)N(C)C(=O)C[C@@H](C(=O)N2CCOCC2)N(C)C(=O)[C@H](C2CCCC2)N(C)C(=O)C2(CCCC2)NC(=O)[C@@H]2CCCN2C(=O)[C@H](CCc2ccc(C(F)(F)F)c(Cl)c2)NC(=O)CN(C)C(=O)[C@H](Cc2ccc(F)cc2)N(C)C(=O)[C@@H]2CCN2C(=O)[C@H](C)N(C)C1=O [PP0217] ([NMeL]I[NMeA][Aze][NMePhe(4-F)][Sar][hPhe(3-Cl-4-CF3)]P[Ac5c][NMeGly(cPent)][NMeD]-Morpholide; lactam N-11),C (A compound having a KD ratio of 0.1 or more and less than 3 is denoted as C),C (A compound having a KD ratio of 0.1 or more and less than 3 is denoted as C)
0.13 nM,CCCN1C(=O)[C@@H]2CCN2C(=O)[C@H](C)N(C)C(=O)[C@H]([C@@H](C)CC)NC(=O)[C@H](CC(C)C)N(C)C(=O)C[C@@H](C(=O)N2CCOCC2)N(C)C(=O)[C@H](C2CCCC2)N(C)C(=O)C2(CCCC2)NC(=O)[C@@H]2CCCN2C(=O)[C@H](CCc2ccc(C(F)(F)F)c(Cl)c2)NC(=O)CN(C)C(=O)[C@@H]1Cc1ccc(F)cc1 [PP0219] ([NMeL]I[NMeA][Aze][X9][Sar][hPhe(3-Cl-4-CF3)]P[Ac5c][NMeGly(cPent)][NMeD]-Morpholide; lactam N-11),B (a compound having 3 or more and less than 10 is denoted as B),C (A compound having a KD ratio of 0.1 or more and less than 3 is denoted as C)
0.57 nM,CC[C@H](C)[C@@H]1NC(=O)[C@H](CC(C)C)N(C)C(=O)C[C@@H](C(=O)N2CCOCC2)N(C)C(=O)[C@H](C2CCCC2)N(C)C(=O)C2(CCCCC2)NC(=O)[C@@H]2CCCN2C(=O)[C@H](CCc2ccc(C(F)(F)F)c(Cl)c2)NC(=O)CN(C)C(=O)[C@H](Cc2ccc(C(F)(F)F)cc2)N(CC)C(=O)[C@@H]2CCN2C(=O)[C@H](C)N(C)C1=O [PP0222] ([NMeL]I[NMeA][Aze][NEtPhe(4-CF3)][Sar][hPhe(3-Cl-4-CF3)]P[Ac6c][NMeGly(cPent)][NMeD]-Morpholide; lactam N-11),C (A compound having a KD ratio of 0.1 or more and less than 3 is denoted as C),C (A compound having a KD ratio of 0.1 or more and less than 3 is denoted as C)
0.22 nM,CCCN1C(=O)[C@@H]2CCN2C(=O)[C@H](C)N(C)C(=O)[C@H]([C@@H](C)CC)NC(=O)[C@H](CC(C)C)N(C)C(=O)C[C@@H](C(=O)N2CCOCC2)N(C)C(=O)[C@H](C2CCCC2)N(C)C(=O)C2(CC2)NC(=O)[C@@H]2CCCN2C(=O)[C@H](CCc2ccc(C(F)(F)F)c(Cl)c2)NC(=O)CN(C)C(=O)[C@@H]1Cc1ccc(C(F)(F)F)cc1 [PP0224] ([NMeL]I[NMeA][Aze][NPrPhe(4-CF3)][Sar][hPhe(3-Cl-4-CF3)]P[Ac3c][NMeGly(cPent)][NMeD]-Morpholide; lactam N-11),B (a compound having 3 or more and less than 10 is denoted as B),C (A compound having a KD ratio of 0.1 or more and less than 3 is denoted as C)
0.23 nM,CCCN1C(=O)[C@@H]2CCN2C(=O)[C@H](C)N(C)C(=O)[C@H]([C@@H](C)CC)NC(=O)[C@H](CC(C)C)N(C)C(=O)C[C@@H](C(=O)N2CCOCC2)N(C)C(=O)[C@H](C2CCCC2)N(C)C(=O)C(C)(C)NC(=O)[C@@H]2CCCN2C(=O)[C@H](CCc2ccc(C(F)(F)F)c(Cl)c2)NC(=O)CN(C)C(=O)[C@@H]1Cc1ccc(C(F)(F)F)cc1 [PP0225] ([NMeL]I[NMeA][Aze][NPrPhe(4-CF3)][Sar][hPhe(3-Cl-4-CF3)]P[Aib][NMeGly(cPent)][NMeD]-Morpholide; lactam N-11),C (A compound having a KD ratio of 0.1 or more and less than 3 is denoted as C),C (A compound having a KD ratio of 0.1 or more and less than 3 is denoted as C)

# From patent US20240158446A1, “CYCLIC COMPOUND HAVING SELECTIVE INHIBITORY ACTION ON KRAS OVER HRAS AND NRAS” (CHUGAI SEIYAKU KABUSHIKI KAISHA, priority 2021, published 2024)
